Measurements as given in article PMC5404925, “Variation in olfactory neuron repertoires is genetically controlled and environmentally modulated” (eLife, 2017).

Legend:
Olfr347 = molecular target: T1, Olfr347 (Mus musculus, UniProt Q8VGK2); assay: CRE-luciferase reporter dose-response (Dual-Glo); assay type: cell-based; conditions: agonist; 1 nM to 1 mM, 4 h stimulation; RTP1S and M3-R co-expressed; Hana3A cells
T1 construct: gene Or1j18; full-length OR, probably N-terminal RHO tag (tag-only control), in HEK293T-derived Hana3A cells with RTP1S and M3-R
T1 sequence (Q8VGK2 1-312): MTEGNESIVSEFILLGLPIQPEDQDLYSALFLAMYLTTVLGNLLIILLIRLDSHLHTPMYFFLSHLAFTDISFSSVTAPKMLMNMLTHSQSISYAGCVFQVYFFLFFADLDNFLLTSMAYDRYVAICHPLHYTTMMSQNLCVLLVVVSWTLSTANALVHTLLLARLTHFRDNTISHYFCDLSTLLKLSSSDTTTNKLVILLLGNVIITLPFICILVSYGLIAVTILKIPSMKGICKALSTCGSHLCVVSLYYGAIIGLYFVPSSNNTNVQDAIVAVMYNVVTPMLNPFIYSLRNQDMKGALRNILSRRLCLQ

Olfr538 = molecular target: T2, Olfr538 (Mus musculus, UniProt Q7TRT5); assay: CRE-luciferase reporter dose-response (Dual-Glo); assay type: cell-based; conditions: agonist; 1 nM to 1 mM, 4 h stimulation; RTP1S and M3-R co-expressed; Hana3A cells
T2 construct: gene Or13a24; full-length OR, probably N-terminal RHO tag (tag-only control), in HEK293T-derived Hana3A cells with RTP1S and M3-R
T2 sequence (Q7TRT5 1-310): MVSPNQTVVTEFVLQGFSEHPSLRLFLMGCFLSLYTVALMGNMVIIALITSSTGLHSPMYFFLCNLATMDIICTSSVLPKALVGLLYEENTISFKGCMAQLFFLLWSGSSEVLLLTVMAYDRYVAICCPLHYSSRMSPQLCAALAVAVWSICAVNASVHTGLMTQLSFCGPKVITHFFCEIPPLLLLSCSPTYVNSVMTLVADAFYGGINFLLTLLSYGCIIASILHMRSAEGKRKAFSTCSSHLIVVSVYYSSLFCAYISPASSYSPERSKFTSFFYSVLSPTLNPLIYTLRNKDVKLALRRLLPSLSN

C=C(C)[C@@H]1CC=C(C)C(=O)C1 [(R)-carvone]
CRE-luciferase reporter dose-response (Dual-Glo) (Olfr347): Dose-response curve for HEK293 cells expressing Olfr347 (black) challenged with increasing concentrations of (R)-carvone | CRE-luciferase reporter dose-response (Dual-Glo) (Olfr538): Olfr538 displayed a dose-dependent response to (R)-carvone
